{"source": "patent US20250346563A1", "about": "“HISTONE DEACETYLASE 6 INHIBITORS AND METHOD FOR TREATING NEUROPATHIC PAIN” (Taipei Medical University, priority 2019, published 2025)", "key": {"scopolamine-treated rats [1]": {"tested_on": "scopolamine-treated rats", "assay": "Water maze test, scopolamine-treated rats", "assay_type": "in vivo", "details": "by gavage twice daily for seven days; scopolamine 1.5 mg/kg ip", "procedure": "(§1) Compound 12, Compound 28, suberanilohydroxamic acid (50 mg/kg) or vehicle was given to rats by gavage twice daily for seven days prior to behavioral experiments. On the day conducting a behavior assessment, rats in all groups except the control group were administered scopolamine (1.5 mg/kg) by intraperitoneal injection for 30 minutes before the assessment, then a water maze test or an elevated plus maze test was performed."}, "scopolamine-treated rats [2]": {"tested_on": "scopolamine-treated rats", "assay": "Elevated plus maze test, scopolamine-treated rats", "assay_type": "in vivo", "details": "by gavage twice daily for seven days; scopolamine 1.5 mg/kg ip", "procedure": "as §1"}, "[3]": {"tested_on": "rat Taxol-induced neuropathic pain model", "assay": "Thermal hyperalgesia in rat Taxol-induced neuropathic pain model", "details": "for thermal hyperalgesia (heat pain threshold) vs vehicle: p<0.05", "method": "Gabapentin (100 mg/kg), was administrated via IP injection on Days 14, 21, and 27 (total three doses) by using the same cohort of animals in vehicle control group. Thermal hyperalgesia was assessed prior to Taxol challenge (Day 0; Pre-Taxol) and compound administration (Day 13; Pre-dose) and at 1.5 hours after (second) compound administration on Days 14, 17, 21, 24, and 27 (Post-dose). All values represented mean±SEM in individual groups. One-way ANOVA followed by Dunnett's test was applied for comparison between vehicle control and test article groups. p<0.05 is considered significant.\nAnimal. Male Sprague-Dawley (SD) rats weighing 220-260 g (at arrival) were provided by BioLasco Taiwan (under Charles River Laboratories Technology Licensee).\nChemotherapy induced neuropathy. Male SD rats weighing 240±20 grams was employed. Taxol (2 mg/kg) was injected IP on Days 1, 3, 5 and 7 with a total cumulative dose of 8 mg/kg (qod×4). During the course of the study, the animals were housed socially under constant temperature, humidity and a 12-hour light-dark cycle.\nThe reference compound, gabapentin (100 mg/kg, IP), was administrated on Days 14, 21, and 27 (total three doses) by using the same cohort of animals in vehicle control group.\nThe animals were tested prior to study inclusion for thermal hyperalgesia on Day 13. Thermal hyperalgesia was measured at 1.5 hour after dosing of vehicle or test article on Days 14, 17, 21, 24 and 27 by using the IITC Plantar Test Apparatus (IITC Model-336G; IITC Inc., USA). […] A light beam under the floor was aimed at the plantar surface of the left hind paw. The time was measured automatically when the paw is withdrawn away from the thermal stimulus. A cut-off latency of 23 sec was imposed. The latency to withdrawal was obtained for each rat and defined as the heat pain threshold.\nAll values represented mean±SEM in individual groups. One-way ANOVA followed by Dunnett's test was applied for comparison between vehicle control and test article groups. p<0.05 is considered significant."}, "[4]": {"tested_on": "multiple myeloma cells (RPMI8226, U266, NCI-H929)", "assay": "Apoptosis in multiple myeloma cells, combined with bortezomib (FACScan, propidium iodide)", "assay_type": "cell-based, human", "details": "RPMI8226, U266, and NCI-H929, 24 hours", "procedure": "A study was conducted to evaluate the effect of a compound of Formula (I) combined with bortezomib in inducing apoptosis in multiple myeloma cells.\nTo detect cell cycle progression, cells were incubated with or without the indicated agent for 24 hours, washed twice with ice-cold PBS, collected by centrifugation, and fixed in 70% (v/v) ethanol for 2 hours at −20° C. They were subsequently incubated for 30 minutes at room temperature with 0.2 mL of deoxyribonucleic acid (DNA) extraction buffer (0.2 M Na2HPO4 and 0.1 M citric acid buffer, pH 7.8), re-suspended in 1 mL of propidium iodide staining buffer (0.1% Triton X-100, 100 μg/mL of RNase A, and 80 μg/mL of propidium iodide in PBS), incubated at 37° C. for 30 minutes in darkness, sorted by FACScan, and analyzed using CellQuest software (BD Biosciences).\nThe study was performed according to the protocol reported in Hsieh et al., Cell Death and Disease, 2014 April; 5:e1166."}, "IL-6 expression": {"tested_on": "IL-6 expression", "assay": "LPS-induced IL-6 expression in RAW 264.7 cells (ELISA)", "assay_type": "cell-based, mouse", "details": "10 μM, LPS 24 hr", "procedure": "FIG. 1. Effects of Compound 28 on LPS-induced IL-6 protein expression. The cells were induced with 1 µg/mL LPS and various concentrations of Compound 28 for 24 hr. The levels of IL-6 were determined by ELISA kit.\nIn this example, we tested that whether Compound 28 can attenuate LPS-induced inflammation.\nCells. The RAW 264.7 cell line derived from mouse macrophage were maintained in Dulbecco's modified Eagle's medium (DMEM; GIBCO, Carlsbad, CA, USA) supplemented with 10% heat-inactivated fetal bovine serum (FBS), 100 μg/mL streptomycin, and 100 IU/mL penicillin.\nMeasurement of IL-6 expression. RAW cells were cultured onto 6 wells plate. After reaching 80% confluence, cells were pretreated with Compound 28 in 1% FBS medium for 30 min and then incubated with LPS for 24 hr. The levels of IL-6 were determined by IL-6 ELISA kit (BD Bioscience, San Jose, CA, USA). Briefly, 50 μL conditioned medium and 50 μL Assay Diluent were added to each well for 2 hours at room temperature. After washed five times, 100 μL Working Detector was added and incubated for 1 hour. After repetitive washing, 100 μL TMB-Substrate Solution was added for 30 minutes. Finally, 50 μL Stop Solution was added and the optical density was determined using microplate reader set at 450 nm."}}, "data": [{"smiles": "O=C(NO)c1ccc(CNc2cccc3ncccc23)cc1", "note": "[Compound 12, N-hydroxy-4-((quinolin-5-ylamino)methyl)benzamide]", "values": [{"measurement": "time spent in the correct quadrant (water maze test)", "setting": "scopolamine-treated rats [1]", "result": "markedly reverse this effect"}, {"measurement": "transfer latency time (elevated plus maze test)", "setting": "scopolamine-treated rats [2]", "result": "significantly rescued scopolamine-mediated increase of transfer latency time"}]}, {"smiles": "O=C(CCCCCCNC(=O)c1cnc(N(c2ccccc2)c2ccccc2Cl)nc1)NO", "note": "[ACY241, Citarinostat, reference compound]", "values": [{"measurement": "thermal hyperalgesia (heat pain threshold) vs vehicle", "setting": "[3]; 50 mg/kg PO qd x14, Days 14, 17, 21, and 24", "result": "successfully relieved the thermal hyperalgesia"}]}, {"smiles": "O=C(NO)c1ccc(CNc2cccc3cccnc23)cc1", "note": "[Compound 28, N-hydroxy-4-((quinolin-8-ylamino)methyl)benzamide]", "values": [{"measurement": "thermal hyperalgesia (heat pain threshold) vs vehicle", "setting": "[3]; 50 mg/kg PO bid x14, Days 21 and 24", "result": "markedly reduced the thermal pain"}, {"measurement": "thermal hyperalgesia (heat pain threshold) vs vehicle", "setting": "[3]; 50 mg/kg PO qd x14, Days 14 and 17", "result": "significant analgesic effects"}, {"measurement": "thermal hyperalgesia (heat pain threshold) vs vehicle", "setting": "[3]; 50 mg/kg PO qd x14, Days 21 and 24", "result": "markedly reduced the thermal pain"}, {"measurement": "apoptosis induction", "setting": "[4]", "result": "synergistically induced apoptosis"}, {"measurement": "LPS-induced IL-6 expression", "setting": "IL-6 expression", "result": "significantly reduce LPS-induced IL-6 expression"}, {"measurement": "time spent in the correct quadrant (water maze test)", "setting": "scopolamine-treated rats [1]", "result": "markedly reverse this effect"}, {"measurement": "transfer latency time (elevated plus maze test)", "setting": "scopolamine-treated rats [2]", "result": "significantly rescued scopolamine-mediated increase of transfer latency time"}]}, {"smiles": "NCC1(CC(=O)O)CCCCC1", "note": "[Gabapentin, reference compound]", "values": [{"measurement": "thermal hyperalgesia (heat pain threshold)", "setting": "[3]; 100 mg/kg IP on Days 14, 21, and 27, during the experimental period", "result": "attenuated the thermal pain"}]}]}
